# Laboratory results taken from patent publication US6566368B2, “Apomorphine-containing dosage form for ameliorating male erectile dysfunction” (Pentech Pharmaceuticals, Inc., priority 1994, dated 2003).
# Assays:
# [1] = test system: patients with psychogenic impotence; settings: nicotine e.g. by smoking
# [2] = test system: patients with psychogenic impotence; settings: patients on liquid sublingual apomorphine 10 mg and 20 mg
smiles,measurement,setting,value
O=c1[nH]c2ccccc2n1CCCN1CCC(n2c(=O)[nH]c3cc(Cl)ccc32)CC1 [Domperidone],"counteraction of adverse effects of the 5 mg apomorphine dose (nausea, diaphoresis, etc.)",[1],can be counteracted
same,"counteraction of apomorphine adverse effects (nausea, vomiting, diaphoresis, etc.)",[2],can be counteracted
CN1CCCC1c1cccnc1 (stereo not drawn) [nicotine],"counteraction of adverse effects of the 5 mg apomorphine dose (nausea, diaphoresis, etc.)",[1],can be counteracted
